“And” between values parts separate entries of the source, which are not always exact repeats. Equal values may be shown once.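 Following 48 hours of exposure in 96-well plates, responses at five concentrations were used to interpolate endpoints linearly. GI50: concentration for 50% inhibition of growth. TGI: total growth inhibition.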
Columns and labels:
Assay in all cases: growth of human tumour cells (NCI), 48 h
[1] = system: SN12C renal
[2] = system: OVCAR-5 ovarian
[3] = system: SF-295 CNS
[4] = system: CCRF-CEM leukemia
[5] = system: OVCAR-8 ovarian
[6] = system: A498 renal
[7] = system: HS 578T breast
[8] = system: T-47D breast
[9] = system: DU-145 prostate
[10] = system: SK-MEL-2 melanoma

Structure (SMILES) | GI50 [1] | TGI [1] | GI50 [2] | TGI [2] | GI50 [3] | TGI [3] | GI50 [4] | TGI [4] | GI50 [5] | TGI [5] | GI50 [6] | TGI [6] | GI50 [7] | TGI [7] | GI50 [8] | TGI [8] | GI50 [9] | TGI [9] | GI50 [10] | TGI [10]
COc1cc2c(Nc3ccc(Br)cc3F)ncnc2cc1OCC1CCN(C)CC1 | 1.58 µM and 3.04 µM | 12.1 µM and > 10 µM | 2.65 µM and 3.23 µM | 18.7 µM and > 10 µM | 5.39 µM and > 10 µM | 15.3 µM and > 10 µM | 4.71 µM and > 10 µM | 17.5 µM and > 10 µM | 5 µM and 7.4 µM | 18 µM and > 10 µM | 0.712 µM and 2.03 µM | 4.36 µM and > 10 µM | 2.26 µM and 2.48 µM | 8.6 µM and > 10 µM | 1.66 µM and 1.32 µM | 8.56 µM and > 10 µM | 1.31 µM and 3.98 µM | 15.1 µM and > 10 µM | 5.33 µM and > 10 µM | 10.9 µM and > 10 µM
CC(C)NC(=O)OCc1c(COC(=O)NC(C)C)c(-c2ccc[n+](COC(=O)C3CC3)c2)n2c1CCC2 |  | > 100 µM |  | > 100 µM |  | > 100 µM |  | > 100 µM |  | > 100 µM |  | 88.1 µM |  | > 100 µM |  | > 100 µM |  | > 100 µM |  | > 100 µM
O=C1/C(=C/c2ccccc2)CN(CCC(=O)N2C/C(=C\c3ccccc3)C(=O)/C(=C/c3ccccc3)C2)C/C1=C\c1ccccc1 | 17.3 µM | > 95.9 µM | 33.1 µM | > 91.3 µM | 14.2 µM | 30 µM | 0.687 µM | > 100 µM | 5.4 µM | > 100 µM | 1.5 µM | 17.8 µM | 10.7 µM | 55.4 µM | 13.5 µM | 75.3 µM | 21.1 µM | 73.9 µM | 17.5 µM | 38.1 µM
CN(C)c1ccc2cc(-c3cc4c(oc3=O)-c3ccccc3OC4O)c(=O)oc2c1 (centres undefined) | 6.2 µM | 19.9 µM | 5.35 µM | 12.8 µM | 3.59 µM | 10.3 µM | 2.54 µM | 7.95 µM | 3.2 µM | 15.7 µM | 5.67 µM | 23.5 µM | 7.14 µM | 19.6 µM | 1.01 µM | 8.55 µM | 5.18 µM | 15.9 µM | 3.03 µM | 7.53 µM
CC1OC(O[C@H]2/C=C/C=C/C=C/C=C/C=C/C=C/C=C/[C@H](C)[C@@H](O)[C@@H](C)[C@H](C)OC(=O)C[C@H](O)C[C@H](O)CC[C@@H](O)[C@H](O)C[C@H](O)C[C@]3(O)C[C@H](O)[C@@H](C(=O)O)[C@H](C2)O3)C(O)C(N)C1O (some centres undefined) | 2.01 µM | 9.15 µM | 27.3 µM | 62.3 µM | > 61.3 µM | > 72.8 µM | 9.99 µM | 48.6 µM | 33 µM | 57.6 µM | 10.4 µM | 25 µM |  | 27.7 µM | 52.3 µM | > 86.8 µM | 12.7 µM | 39.2 µM |  | 59.3 µM
COC1CC2C=CC3C4OC2(/C(C)=C/C(C)C(C(C)O)OC1=O)C3C(O)C(C)C4OC(=O)c1ccc[nH]1 (centres undefined) |  | > 100 µM |  | > 100 µM |  | > 100 µM |  | > 100 µM |  | > 100 µM |  | > 100 µM |  | > 100 µM |  | > 100 µM |  | > 100 µM |  | > 100 µM
O=c1ccccc(-c2ccc(-c3ccco3)cc2)c1O | 1.24 µM | 16.6 µM | 2.79 µM | 42 µM | 0.555 µM | 13.6 µM | 0.505 µM | > 100 µM | 0.507 µM | 29 µM | 3.46 µM | 25.9 µM | 4.94 µM | 76.9 µM | 1.56 µM | 80.3 µM | 0.967 µM | > 100 µM | 10.5 µM | 44.2 µM
O=C(O[C@H]1CN[C@H](C#Cc2cc3ncnc(Nc4ccc(OCc5cccc(F)c5)c(Cl)c4)c3s2)C1)N1CCOCC1 | 5.66 µM | > 25 µM | 10.5 µM | > 25 µM | 9 µM | > 25 µM | 2.2 µM | > 22 µM | 7.35 µM | > 25 µM | 1.76 µM | 8.21 µM | 7.23 µM | > 25 µM | 1.55 µM | > 25 µM | 5.96 µM | > 25 µM | 7.4 µM | 18.7 µM
CCn1cc(C(=O)N/N=C/c2cccc(F)c2)c(=O)c2cc(F)c(N3CCNC(C)C3)c(F)c21 (centres undefined) | 1.62 µM | 3.11 µM | 1.7 µM | 3.1 µM | 1.8 µM | 3.29 µM | 1.55 µM | 3.39 µM | 1.76 µM | 3.32 µM | 1.28 µM | 6.36 µM | 4.4 µM | 25.5 µM | 1.61 µM | 3.25 µM | 1.67 µM | 3.05 µM | 1.97 µM | 3.86 µM
N/C(=N\c1nc2ccccc2s1)NC(=O)Nc1ccccc1Cl | 0.916 µM | > 50.1 µM | 0.379 µM | 26.8 µM | 0.106 µM | 1.74 µM | 0.11 µM | > 42.8 µM | 0.179 µM | 25.1 µM | 0.0818 µM | 0.579 µM | 0.113 µM | 10.7 µM | 0.557 µM | > 100 µM | 0.259 µM | 9.28 µM | 3.24 µM | > 61.3 µM
c1ccc(/N=C2\c3ccccc3CN2c2ccccn2)nc1 |  | > 100 µM |  | > 100 µM |  | > 100 µM |  |  |  | > 100 µM |  | > 100 µM |  | > 100 µM |  | 77.2 µM |  | > 100 µM |  | > 100 µM
O=C1/C=C/[C@@H](O)[C@@H]2C[C@@H](O)C[C@H]2/C=C/CCC[C@H](CO)O1 | 4.24 µM | > 100 µM | 4.19 µM | > 100 µM |  |  | 4.19 µM | > 100 µM | 3 µM | > 100 µM | 1.31 µM | > 100 µM | > 100 µM | > 100 µM | 2.49 µM | 7.12 µM | 7.75 µM | > 100 µM | 2.39 µM | 5.95 µM
O=C(CN1CCOCC1)CC(O)(C(F)(F)F)C(F)(F)F |  |  |  | > 100 µM |  | > 100 µM |  | > 100 µM |  | > 100 µM |  | > 100 µM |  | > 100 µM |  | > 100 µM |  | > 100 µM |  | > 100 µM

Reference: PubChem BioAssay (NCI)
